# Assay results taken from patent US8883841B2, “Oncogenic ras-specific cytotoxic compound and methods of use thereof” (The Board of Regents of the University of Texas System, priority 2005, dated 2014).
# Test system: Akt
# Experiment: Western blot analysis of Akt
# Assay type: cell-based, human
# Details: 1 μM, 12 h
# Method: Ras Signaling Pathway and Molecular Mechanisms of Oncrasin-induced apoptosis. To investigate molecular mechanisms of apoptosis induction by Oncrasin compounds, levels several proteins that are involved in apoptosis and/or involved in Ras signaling pathways were determined, including Bax, Bik, Bc12, Bcl-XL, Raf-1, B-Raf, Akt, Mst1 and atypical protein kinase C (aPKC) zeta and PKCiota. To study which molecules are affected by Oncrasin treatment, T29, T29Kt1 and H460 cells were treated with Oncrasin-1 at an optimal concentration, around IC60 to IC80 for T29Kt1 and H460 cells. Cell lysates were collected 12 h after the treatment and subjected to Western blot analysis.
smiles,measurement,value
"O=Cc1cn(Cc2ccc(Cl)cc2)c2ccccc12 [Oncrasin K001, 1H-Indole-3-carboxaldehyde, 1-[(4-chlorophenyl)methyl]-(9CI)]",Akt level in H460 cells,down regulation
